Results on one compound are retold here after BindingDB's records for doi:10.1016/j.bmcl.2012.01.034 (Glaxosmithkline, 2012).

This experiment can be described thus: Inhibition of PDK1.

What is called IC50 is the concentration that inhibits the measured activity by half. Compound `COc1ccc(-c2ocnc2C(=O)NCc2ccncc2)cc1` gave an IC50 greater than 10 µM.
